The target in this experiment is HIV Protease (Human immunodeficiency virus type 1 group M subtype B, UniProt P04585). The experiment can be described thus: Inhibition of HIV Protease. The experiment is classed as biochemical.
The mark [1] stands for this setting: Table 1, Inhibition of HIV Protease by compounds of formula drawing 46.

The results in this text go back to patent US9359317B2, “Small molecule inhibitors of HIV proteases” (Purdue Research Foundation, priority 2008, dated 2016).

For the compound `Cc1ccc(S(=O)(=O)NC(C(=O)O)C2CC(c3ccccc3)OC2CC(O)CO)cc1` (stereo not shown) [compound 22], under setting [1], affinity was put at a Ki of 27 nM.
For the compound `COc1ccc(S(=O)(=O)NC(C(=O)O)C2CC3Cc4cc(OC)ccc4C2O3)cc1` (stereo not shown) [compound 2], the Ki (usually a measure of affinity in units of concentration, obtained from inhibition or displacement) (Table 2, Inhibition of HIV Protease) is > 1000 nM.
Turning to `C=CCC1OC(c2ccccc2)CC1C(NS(=O)(=O)c1ccc(C)cc1)C(=O)O` (stereo not shown) [compound 25], under setting [1], the Ki is > 1000 nM.
Same read-out and setting: in the case of `Cc1ccc(S(=O)(=O)NC(C(=O)O)C2CC(c3ccc4ccccc4c3)OC2CC(O)c2ccccc2)cc1` (stereo not shown) [compound 26] it was 150 nM; in that of `C=CCC1OC(c2ccccc2)CC1C(NS(=O)(=O)c1ccc(F)cc1)C(=O)O` (stereo not shown) [compound 18], > 1000 nM; in that of `Cc1ccc(S(=O)(=O)NC(C(=O)O)C2CC(c3ccccc3)OC2CC(O)c2ccccc2)cc1` (stereo not shown) [compound 21], 4 nM.
`CC=CC1OC(c2ccccc2)CC1C(NS(=O)(=O)c1ccc(C)cc1)C(=O)O` (stereo not shown) [compound 33]: the Ki under setting [1] is > 1000 nM.
